Measurements from patent publication US11672786B2, “Methods of treating diseases associated with repeat instability” (The Hospital for Sick Children, priority 2016, dated 2023).

Assays:
[1] = system: clustered short slip-outs on (CAG)50●(CTG)50 (S-DNA); assay: band-shift NA-DNA binding, clustered short slip-outs (S-DNA); set-up: species or system human; settings: NA 0.15-50 μM, 4% polyacrylamide gel
Description: FIG. 2 are the results of experiments showing that NA binds to long CAG slip-outs. […] The (CAG)n DNA sequence (left) can fold into an hairpin structure involving mismatched A-A pair flanking C-G base pairs (middle). NA molecules can intercalate into the DNA helix, with the 2-amino-1,8-naphthyridine moiety (in red) hydrogen bonding to guanine and 8-azaquinolone moiety (in blue) hydrogen bonding to adenine. […] Long slip-outs extruded as a single slip-out from a fully base-paired backbone of (CTG)n●(CAG)n, as described (Pearson et al., 2002, Nuc. Acids Res., 30:4534-47). DNAs were mixed with increasing concentrations of NA (0.15 μM, 0.75 μM, 7.5 μM and 50 μM) and resolved on 4% polyacrylamide gels. All lanes are from the same gel, and they were separated for clarity. NA-DNA complexes are shown by brackets, free DNA is indicated by arrowheads. […] The relative migration was measured for the linear and the three slip-outs substrates as the ratio of the migration distance of each NA-DNA complex to the migration distance of the free DNA. The migration distance was measured from the well to a consistent center point of each band. […]

[2] = system: transcription across the CAG transgene, R6/2 striatum; assay: qRT-PCR of CAG transgene transcription in R6/2 striatum; format: in vivo, mouse; settings: NA-treated vs. PBS-treated R6/2 striatum
Experimental: Strand specific RT-PCR (1 weeks). AttB-PhiC31 system have been widely used for single copy integration. Panel B of FIG. 16 was determined by quantitative real-time reverse transcriptase (qRT)-PCR and normalized to U6 RNA, expressed as the ratio of NA-treated vs. PBS-treated R6/2 striatum. Data are indicated as the mean±SD of triplicates.

long (CTG)20 slip-out = assay: in vitro repair assay by HeLa cell extracts, long (CTG)20 slip-out; format: biochemical, human
Description: Panel A of […] is a schematic of the in vitro repair assay. Starting DNAs and repair products released the repeat-containing fragment, which is resolved on PAGE and assessed on a molar level by Southern blotting and densitometry. Repair of different DNA substrates containing a long (CAG)20 slip-out (Panel B of FIG. 3) long (CTG)20 slip-out (Panel C of FIG. 3), a single CAG slip-out (Panel D of FIG. 3) or a single G-T mismatch (Panel E of FIG. 3), in the absence or in the presence of NA. Slipped-DNA substrates were prepared from hybrids of (CAG)50●(CTG)30, (CAG)30●(CTG)50 or of (CAG)50●(CTG)49. Repair of the G-T mismatch reconstitutes a HindIII restriction site, as shown schematically. Graphs show percentage repair efficiencies to repaired product relative to all repeat-containing fragments in the lane, values are normalized to the NA-free efficiency. […]
To determine how the binding of NA to slipped DNA structures affects repair, a series of circular slipped heteroduplex substrates was made with an excess of repeats with a nick located either 5′ or 3′ of the slip-out (FIG. 3). […] All these substrates were processed in […] by HeLa extracts and then were assessed for repair. Repair products were analyzed by Southern blotting, probed for the repeat-containing fragment, and compared with starting material, which permitted quantitative assessment of repair efficiency at a molar level. […]

naphthyridine-azaquinolone
NA binding (band-shift) [1]: can bind NA to a limited degree
effect on transcription across the CAG transgene [2]: does not affect transcription
effect on repair of long (CTG)20 slip-outs (long (CTG)20 slip-out): doesn't affect the repair efficiency
